US7560468B2, “Substituted 1,4,8-triazaspiro[4,5]decan-2-one compounds” (Gruenenthal GmbH, priority 2004, dated 2009)

Legend:
NA transporter = assay: Inhibition of noradrenalin uptake in synaptosomes; assay type: biochemical
5-HT transporter = molecular target: T1, 5-HT transporter (Rattus norvegicus, UniProt P31652); assay: Inhibition of 5-HT uptake in synaptosomes; assay type: biochemical; details: for inhibition at 1 µM: read-out: Uptake_5-HT, rat, 1 μM, % inhibition
T1 construct: from tissue; host or cells: rat brain synaptosomes (marrow/medulla and pons), P2 fraction

[1] = tested on: batrachotoxin (BTX) binding site of the sodium channel; assay: Affinity to the batrachotoxin (BTX) binding site of the sodium channel; details: rat cerebrocortex synaptosomes, [3H]-batrachotoxinin A20 α-benzoate 10 nM; test concentration not given

T1 sequence (P31652 whole entry): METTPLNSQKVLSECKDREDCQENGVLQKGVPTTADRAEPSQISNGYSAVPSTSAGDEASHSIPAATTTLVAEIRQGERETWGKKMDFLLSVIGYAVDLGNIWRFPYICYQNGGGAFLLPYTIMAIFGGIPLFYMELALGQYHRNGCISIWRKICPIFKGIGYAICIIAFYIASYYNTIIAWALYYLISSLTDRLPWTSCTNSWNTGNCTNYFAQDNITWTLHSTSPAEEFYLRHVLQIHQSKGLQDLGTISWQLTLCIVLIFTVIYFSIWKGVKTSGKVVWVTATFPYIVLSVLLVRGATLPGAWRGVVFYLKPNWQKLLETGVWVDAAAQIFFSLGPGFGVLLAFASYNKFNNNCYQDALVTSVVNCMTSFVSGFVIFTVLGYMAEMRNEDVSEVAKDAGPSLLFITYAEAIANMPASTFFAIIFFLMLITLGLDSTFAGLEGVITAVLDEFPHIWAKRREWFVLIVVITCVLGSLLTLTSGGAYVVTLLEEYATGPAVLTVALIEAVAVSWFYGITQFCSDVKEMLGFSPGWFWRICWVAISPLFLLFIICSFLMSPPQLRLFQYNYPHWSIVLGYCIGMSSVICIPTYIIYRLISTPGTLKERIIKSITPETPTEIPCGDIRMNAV

| Compound | Uptake (NA), rat, 10 μM, % inhibition (NA transporter) | Uptake_5-HT, rat, 1 μM, % inhibition (5-HT transporter) | BTX Inhibition [1] | inhibition at 1 µM (5-HT transporter) |
| --- | --- | --- | --- | --- |
| COc1cc(C)c(S(=O)(=O)N2CCC3(CC2)NC(C(C)C)C(=O)N3Cc2ccccc2F)c(C)c1C (stereo not drawn) [Example 11, 1-(2-Fluorobenzyl)-3-isopropyl-8-(4-methoxy-2,3,6-trimethylbenzolsulfonyl)-1,4,8-triazaspiro[4,5]decan-2-one] | 37% | 52% |  |  |
| C#CCN1C(=O)C(Cc2ccccc2)NC12CCN(S(=O)(=O)c1ccccc1C(F)(F)F)CC2 (stereo not drawn) [Example 39, 3-Benzyl-1-prop-2-ynyl-8-(2-trifluoromethylbenzolsulfonyl)-1,4,8-triazaspiro[4,5]decan-2-one] | 41% | 38% | 39 |  |
| CCOC(=O)CN1C(=O)C(Cc2ccccc2)NC12CCN(S(=O)(=O)c1cc([N+](=O)[O-])ccc1C)CC2 (stereo not drawn) [Example 46, Ethyl[3-benzyl-8-(2-methyl-5-nitrobenzolsulfonyl)-2-oxo-1,4,8-triazaspiro[4,5]dec-1-yl]-acetate] | 33% | 90% | 30 |  |
| CCOC(=O)CN1C(=O)C(Cc2ccccc2)NC12CCN(S(=O)(=O)c1ccccc1S(C)(=O)=O)CC2 (stereo not drawn) [Example 47, Ethyl[3-benzyl-8-(2-methansulfonylbenzolsulfonyl)-2-oxo-1,4,8-triazaspiro[4,5]dec-1-yl]-acetate] | 47% | 71% | 31 |  |
| CCCCS(=O)(=O)N1CCC2(CC1)NCC(=O)N2Cc1ccc(C(=O)OC)cc1 [Example 53, Methyl 4-[8-(butan-1-sulfonyl)-2-oxo-1,4,8-triazaspiro[4,5]dec-1-ylmethyl]-benzoate] | 30% |  | 31 | 45% |
| CCOC(=O)CN1C(=O)C(Cc2ccccc2)NC12CCN(S(=O)(=O)c1ccccc1C(F)(F)F)CC2 (stereo not drawn) [Example 65, Ethyl[3-benzyl-2-oxo-8-(2-trifluoromethylbenzolsulfonyl)-1,4,8-triazaspiro[4,5]dec-1-yl]-acetate] | 33% | 71% | 51 |  |
| CCOC(=O)CN1C(=O)C(Cc2ccccc2)NC12CCN(S(=O)(=O)Cc1ccccc1)CC2 (stereo not drawn) [Example 68, Ethyl(3-benzyl-2-oxo-8-benzolmethansulfonyl-1,4,8-triazaspiro[4,5]dec-1-yl)acetate] | 31% | 69% | 47 |  |
| COc1ccccc1NC(=S)N1CCC2(CC1)NC(Cc1ccccc1)C(=O)N2Cc1ccccc1F (stereo not drawn) [Example 108, 3-Benzyl-1-(2-fluorobenzyl)-2-oxo-1,4,8-triazaspiro[4,5]decan-8-thiocarboxylic acid (2-methoxy-benzol)amide] | 31% | 86% | 86 |  |
| CCCCN1C(=O)C(C(C)C)NC12CCN(C(=S)NCc1ccc(Cl)cc1)CC2 (stereo not drawn) [Example 150, 1-Butyl-3-isopropyl-2-oxo-1,4,8-triazaspiro[4,5]decan-8-thiocarboxylic acid 4-chlorobenzylamide] | 30% |  | 73 | 51% |
| CSCCC1NC2(CCN(C(=S)Nc3ccccc3C)CC2)N(Cc2ccc3ccccc3c2)C1=O (stereo not drawn) [Example 151, 3-(2-Methylsulfanylethyl)-1-naphthalin-2-ylmethyl-2-oxo-1,4,8-triazaspiro[4,5]decan-8-thiocarboxylic acid o-tolylamide] | 42% |  | 84 | 64% |
| CC(C)C1NC2(CCN(C(=S)Nc3c(F)c(F)c(F)c(F)c3F)CC2)N(Cc2ccccc2)C1=O (stereo not drawn) [Example 154, 1-Benzyl-3-isopropyl-2-oxo-1,4,8-triazaspiro[4,5]decan-8-thiocarboxylic acid pentafluorobenzolamide-amide] | 43% | 34% | 61 |  |
| CCCCN1C(=O)C(CCSC)NC12CCN(C(=S)Nc1ccc(OCC)cc1)CC2 (stereo not drawn) [Example 158, 1-Butyl-3-(2-methylsulfanylethyl)-2-oxo-1,4,8-triazaspiro[4,5]decan-8-thiocarboxylic acid (4-ethoxy-benzol)amide] | 41% | 33% | 35 |  |
| CCOC(=O)CN1C(=O)C(Cc2ccccc2)NC12CCN(C(=S)NCC1CCCCC1)CC2 (stereo not drawn) [Example 159, Ethyl[3-benzyl-8-(cyclohexylmethylthiocarbamoyl)-2-oxo-1,4,8-triazaspiro[4,5]dec-1-yl]-acetate] | 36% |  | 84 | 33% |
| C#CCN1C(=O)C(CC(C)C)NC12CCN(C(=S)Nc1cccc(C(C)=O)c1)CC2 (stereo not drawn) [Example 163, 3-Isobutyl-2-oxo-1-prop-2-ynyl-1,4,8-triazaspiro[4,5]decan-8-thiocarboxylic acid (3-acetylbenzol)amide] | 34% | 38% |  |  |
| CSCCC1NC2(CCN(C(=S)Nc3cccc(C(C)=O)c3)CC2)N(Cc2ccc3ccccc3c2)C1=O (stereo not drawn) [Example 165, 3-(2-Methylsulfanylethyl)-1-naphthalin-2-ylmethyl-2-oxo-1,4,8-triazaspiro[4,5]decan-8-thiocarboxylic acid (3-acetylbenzol)amide] | 48% | 42% | 64 |  |
| Cc1cccc(NC(=S)N2CCC3(CC2)NC(Cc2ccccc2)C(=O)N3Cc2ccccc2F)c1 (stereo not drawn) [Example 166, 3-Benzyl-1-(2-fluorobenzyl)-2-oxo-1,4,8-triazaspiro[4,5]decan-8-thiocarboxylic acid m-tolylamide] | 39% |  | 85 | 64% |
| CCOC(=O)NC(=S)N1CCC2(CC1)NC(Cc1ccccc1)C(=O)N2Cc1ccccc1F (stereo not drawn) [Example 174, Ethyl[3-benzyl-1-(2-fluorobenzyl)-2-oxo-1,4,8-triazaspiro[4,5]decan-8-carbothioyl]-carbamate] | 39% |  | 38 | 31% |
| CCCCN1C(=O)C(C(C)C)NC12CCN(C(=O)Nc1cc(OC)ccc1OC)CC2 (stereo not drawn) [Example 216, 1-Butyl-3-isopropyl-2-oxo-1,4,8-triazaspiro[4,5]decan-8-carboxylic acid (2,5-dimethoxy-benzol)amide] | 30% | 46% |  |  |
